Reference: the NIST ThermoML archive (doi:10.1016/j.jct.2017.05.001)

Assay: wn = mass fraction of the nth substance listed
Conditions: Liquid; for mass density: Vibrating tube method

OCCNCCO [diethanolamine] + O
viscosity [mPa·s]
Conditions	w1 = 0.0993	w1 = 0.1	w1 = 0.2	w1 = 0.3	w1 = 0.3002	w1 = 0.3997	w1 = 0.4
293.15 K, 100 kPa, Concentric cylinders viscometry	–	1.486	2.287	3.621	–	–	6.311
293.15 K, 100 kPa, Falling or rolling sphere viscometry	1.493	–	2.219	–	3.633	6.248	–
293.15 K, 5000 kPa, Falling or rolling sphere viscometry	1.49	–	2.215	–	3.617	6.351	–
293.15 K, 10000 kPa, Falling or rolling sphere viscometry	1.486	–	2.214	–	3.635	6.416	–
293.15 K, 15000 kPa, Falling or rolling sphere viscometry	1.49	–	2.217	–	3.634	6.463	–
293.15 K, 20000 kPa, Falling or rolling sphere viscometry	1.487	–	2.217	–	3.661	6.534	–
293.15 K, 25000 kPa, Falling or rolling sphere viscometry	1.488	–	2.218	–	3.676	6.598	–
293.15 K, 30000 kPa, Falling or rolling sphere viscometry	1.487	–	2.22	–	3.688	6.6	–
293.15 K, 40000 kPa, Falling or rolling sphere viscometry	1.486	–	2.221	–	3.714	6.683	–
293.15 K, 60000 kPa, Falling or rolling sphere viscometry	1.487	–	2.242	–	3.766	6.853	–
293.15 K, 80000 kPa, Falling or rolling sphere viscometry	1.49	–	2.26	–	3.818	6.973	–
293.15 K, 100000 kPa, Falling or rolling sphere viscometry	1.494	–	2.277	–	3.874	7.169	–
313.15 K, 100 kPa, Concentric cylinders viscometry	–	0.914	1.343	1.977	–	–	3.197
313.15 K, 100 kPa, Falling or rolling sphere viscometry	0.9237	–	1.304	–	1.98	3.168	–
313.15 K, 5000 kPa, Falling or rolling sphere viscometry	0.915	–	1.292	–	1.976	3.174	–
313.15 K, 10000 kPa, Falling or rolling sphere viscometry	0.9172	–	1.296	–	1.983	3.222	–
313.15 K, 15000 kPa, Falling or rolling sphere viscometry	0.9188	–	1.301	–	1.993	3.248	–
313.15 K, 20000 kPa, Falling or rolling sphere viscometry	0.9192	–	1.303	–	2.004	3.239	–
313.15 K, 25000 kPa, Falling or rolling sphere viscometry	0.9215	–	1.309	–	2.012	3.28	–
313.15 K, 30000 kPa, Falling or rolling sphere viscometry	0.9226	–	1.312	–	2.022	3.303	–
313.15 K, 40000 kPa, Falling or rolling sphere viscometry	0.9253	–	1.318	–	2.039	3.361	–
313.15 K, 60000 kPa, Falling or rolling sphere viscometry	0.9334	–	1.335	–	2.08	3.438	–
313.15 K, 80000 kPa, Falling or rolling sphere viscometry	0.9414	–	1.353	–	2.119	3.538	–
313.15 K, 100000 kPa, Falling or rolling sphere viscometry	0.9509	–	1.371	–	2.158	3.625	–
333.15 K, 100 kPa, Concentric cylinders viscometry	–	0.64	0.871	1.248	–	–	1.864
333.15 K, 100 kPa, Falling or rolling sphere viscometry	0.6268	–	0.8581	–	1.247	1.885	–
333.15 K, 5000 kPa, Falling or rolling sphere viscometry	0.6258	–	0.8575	–	1.243	1.872	–
333.15 K, 10000 kPa, Falling or rolling sphere viscometry	0.6274	–	0.8602	–	1.248	1.886	–
333.15 K, 15000 kPa, Falling or rolling sphere viscometry	0.6269	–	0.8632	–	1.254	1.9	–
333.15 K, 20000 kPa, Falling or rolling sphere viscometry	0.6303	–	0.8673	–	1.258	1.912	–
333.15 K, 25000 kPa, Falling or rolling sphere viscometry	0.6312	–	0.8717	–	1.265	1.896	–
333.15 K, 30000 kPa, Falling or rolling sphere viscometry	0.6339	–	0.8763	–	1.271	1.943	–
333.15 K, 40000 kPa, Falling or rolling sphere viscometry	0.6383	–	0.8845	–	1.283	1.973	–
333.15 K, 60000 kPa, Falling or rolling sphere viscometry	0.6452	–	0.8989	–	1.312	2.029	–
333.15 K, 80000 kPa, Falling or rolling sphere viscometry	0.6532	–	0.9136	–	1.337	2.086	–
333.15 K, 100000 kPa, Falling or rolling sphere viscometry	0.6623	–	0.9264	–	1.365	2.136	–

mass density [kg/m3]
Conditions	w1 = 0.0993	w1 = 0.2	w1 = 0.3002	w1 = 0.3997
293.15 K, 100 kPa	1009.4	1021.6	1034.5	1047.5
293.15 K, 500 kPa	1009.5	1021.7	1034.7	1047.7
293.15 K, 1000 kPa	1009.7	1021.9	1034.8	1047.9
293.15 K, 2000 kPa	1010.2	1022.3	1035.2	1048.2
293.15 K, 5000 kPa	1011.4	1023.5	1036.3	1049.3
293.15 K, 10000 kPa	1013.6	1025.5	1038.2	1051
293.15 K, 15000 kPa	1015.6	1027.4	1040	1052.8
293.15 K, 20000 kPa	1017.7	1029.4	1041.8	1054.5
293.15 K, 30000 kPa	1021.8	1033.3	1045.4	1058
293.15 K, 40000 kPa	1025.9	1037	1049	1061.4
293.15 K, 50000 kPa	1029.7	1040.7	1052.5	1064.7
293.15 K, 60000 kPa	1033.6	1044.4	1055.9	1068
293.15 K, 70000 kPa	1037.6	1048	1059.3	1071.2
293.15 K, 80000 kPa	1041.1	1051.4	1062.5	1074.3
293.15 K, 90000 kPa	1044.8	1054.9	1065.8	1077.4
293.15 K, 100000 kPa	1048.5	1058.4	1069.1	1080.6
293.15 K, 110000 kPa	1051.9	1061.6	1072.1	1083.5
293.15 K, 120000 kPa	1055.4	1064.9	1075.3	1086.5
293.15 K, 130000 kPa	1059	1068.3	1078.5	1089.6
293.15 K, 140000 kPa	1062.2	1071.4	1081.4	1092.4
313.15 K, 100 kPa	1002.9	1014.3	1026	1038
313.15 K, 500 kPa	1003.1	1014.4	1026.2	1038.2
313.15 K, 1000 kPa	1003.4	1014.6	1026.4	1038.4
313.15 K, 2000 kPa	1003.7	1015	1026.7	1038.7
313.15 K, 5000 kPa	1005	1016.2	1027.9	1039.8
313.15 K, 10000 kPa	1007	1018.2	1029.7	1041.7
313.15 K, 15000 kPa	1009	1020.1	1031.6	1043.4
313.15 K, 20000 kPa	1011	1022	1033.4	1045.1
313.15 K, 30000 kPa	1015.1	1025.8	1037.1	1048.7
313.15 K, 40000 kPa	1019.1	1029.7	1040.7	1052.3
313.15 K, 50000 kPa	1022.8	1033.2	1044.1	1055.6
313.15 K, 60000 kPa	1026.6	1036.9	1047.6	1059
313.15 K, 70000 kPa	1030.4	1040.4	1051	1062.2
313.15 K, 80000 kPa	1033.9	1043.8	1054.3	1065.4
313.15 K, 90000 kPa	1037.3	1047.1	1057.5	1068.5
313.15 K, 100000 kPa	1040.9	1050.6	1060.8	1071.6
313.15 K, 110000 kPa	1044.4	1053.9	1063.9	1074.7
313.15 K, 120000 kPa	1047.7	1057.1	1067.1	1077.7
313.15 K, 130000 kPa	1051.1	1060.3	1070.2	1080.7
313.15 K, 140000 kPa	1054.4	1063.5	1073.3	1083.6
333.15 K, 100 kPa	993.4	1004.2	1015.4	1026.6
333.15 K, 500 kPa	993.7	1004.4	1015.5	1026.8
333.15 K, 1000 kPa	993.9	1004.6	1015.7	1027
333.15 K, 2000 kPa	994.3	1005	1016.2	1027.4
333.15 K, 5000 kPa	995.5	1006.2	1017.3	1028.5
333.15 K, 10000 kPa	997.6	1008.2	1019.3	1030.4
333.15 K, 15000 kPa	999.6	1010.2	1021.2	1032.3
333.15 K, 20000 kPa	1001.6	1012.1	1023.1	1034.2
333.15 K, 30000 kPa	1005.7	1016	1026.9	1037.8
333.15 K, 40000 kPa	1009.7	1020	1030.6	1041.6
333.15 K, 50000 kPa	1013.4	1023.6	1034.1	1045
333.15 K, 60000 kPa	1017.2	1027.1	1037.7	1048.4
333.15 K, 70000 kPa	1020.9	1030.8	1041.1	1051.8
333.15 K, 80000 kPa	1024.5	1034.2	1044.4	1055
333.15 K, 90000 kPa	1028	1037.5	1047.7	1058.2
333.15 K, 100000 kPa	1031.5	1041	1051.1	1061.5
333.15 K, 110000 kPa	1034.9	1044.2	1054.3	1064.6
333.15 K, 120000 kPa	1038.4	1047.7	1057.5	1067.8
